In experiment [1] the target is T1, GST-Bcl-B (Homo sapiens, UniProt Q9HD36).
T1 sequence (Q9HD36 1-182 limits assumed): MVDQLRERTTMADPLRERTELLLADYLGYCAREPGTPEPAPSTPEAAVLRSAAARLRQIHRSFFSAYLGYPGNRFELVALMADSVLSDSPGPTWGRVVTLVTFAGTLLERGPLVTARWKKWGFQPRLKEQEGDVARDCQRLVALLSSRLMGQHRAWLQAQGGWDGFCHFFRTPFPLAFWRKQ
Put plainly: Bcl-B/FITC-TR3-r8 fluorescence polarization competition (displacement) assay, HTS and dose-response. The conditions noted are these: for Bcl-B H Coefficient: Hill coefficient of Bcl-B dose-response curve. On the technique in general: Polarisation of emitted light reports the rotation of a fluorescent probe.

The target of experiment [2] is T1, GST-Bcl-B. Nature of the experiment: biochemical.
Experiment [3] has as its target GST-Bcl-2 (Homo sapiens, UniProt P10415). Put plainly: biochemical.
The target in experiment [4] is T1, GST-Bcl-B. Nature of the experiment: FITC-Bim-BH3/GST-Bcl-B fluorescence polarization displacement assay. The format is binding. Also on record: their C-terminal transmembrane domains (˜20 amino acids) were deleted to enhance protein solubility; made in house; host or cells: E. coli (BL21 Star (DE3); XL-1 Blue), pGEX-4T-1. The settings on record: FIG. 23D; result in words.

In experiment [5] the target is T1, GST-Bcl-B. Nature of the experiment: 1D 1H-NMR compound binding, GST-Bcl-B. The conditions noted are these: result in words. Also on record: their C-terminal transmembrane domains (˜20 amino acids) were deleted to enhance protein solubility; made in house; host or cells: E. coli (BL21 Star (DE3); XL-1 Blue), pGEX-4T-1. As for the experimental part: (§1) FIGS. 22A-22F are line graphs showing a ^1H-NMR spectra confirmation of compound binding to Bcl-B. Compounds 5804000, 5954623, and 2011727 were diluted in PBS/D2O buffer to 1000 μM, then incubated with either GST (FIGS. 22A, C, E) or GST-Bcl-B (FIGS. 22B, D, F) at 0, 10 or 20 μM concentrations. FIGS. 22A-B show compound 5804000; FIGS. 22C-D show compound 5954623; and FIGS. 22E-F show the NMR spectra for the negative control compound 2011727. The most prominent peak shift for each compound is shown.
(§2) NMR experiments were performed at 25° C. on a 500 MHz Bruker Avance spectrometer (Bruker, Madison, Wis.) equipped with a 5 mm TXI probe. […] Reference solutions were then used in titration experiments with GST-Bcl-B or GST. All ^1H NMR spectra were obtained with the carrier position set to the water peak signal using WATERGATE. NMR data were processed and analyzed with MestRe Nova (MestReLab Research, Santiago de Compostela, Spain).

Experiment [6] deals with HeLa Tet-On-Bcl-B (HTO2) cells. Put plainly: Cell viability (ATPlite) in HeLa Tet-On-Bcl-B cells with or without doxycycline. Format: cell-based. The settings on record: for IC50: Homo sapiens, HeLa, 24 h, read-out: concentration required to reduce HeLa Tet-On-Bcl-B cell viability by 50%. The method, then:
(§3) FIG. 24A is a photograph of a blot wherein HeLa Tet-On (HTO1) and HeLa Tet-On-Bcl-B (HTO2) cells were treated with or without doxycycline (dox) for 24 h to induce their tetracycline-responsive promoters. Protein lysates were collected, and immunoblotting was used to analyze Bcl-B and Hsc70 (for loading control) expression. In FIG. 24B the cells were treated with or without doxycycline for 24 h, and then with staurosporine at the indicated concentrations for 24 h. Cell viability was measured using ATPlite. In FIG. 24C HeLa Tet-On-Bcl-B (HTO2) cells were treated with or without doxacycline as above. Compounds were then added at the indicated concentrations, and cell viability was measured 24 h later using ATPlite. The data shown represent mean±standard deviation (n=3).
HeLa Tet-On-Bcl-B cells were generated by stably transfecting the HeLa Tet-On cell line (Clontech, Mountain View, Calif.) with a pTRE2hyg vector (Clontech) containing the Bcl-B gene, using lipofectAMINE PLUS (Invitrogen, Carlsbad, Calif.). Briefly, cells were seeded overnight and transfected at 50% confluency for 3 h. After 24 h, the cells were re-seeded at <10% confluence and cultured in media (DMEM with 10% Tet System Approved FBS (Clontech)) containing G418 (100 μg/mL) and hygromycin B (300 μg/mL) for pTet-On and pTRE2hyg/Bcl-B plasmid maintenance, respectively. Positive foci resistant to both antibiotics were expanded. Colonies were then cultured in the presence or absence of doxycycline (Clontech, 1 μg/mL) for 16 h, and induced Bcl-B expression was confirmed by Western blot analysis. A previously developed polyclonal Bcl-B antibody^17 and an Hsc70 antibody (for protein concentration comparison; Santa Cruz Biotechnology, Santa Cruz, Calif.) were used.
(§4) Cells were seeded in 96-well plates at 5,000 cells/well in 100 μL of growth medium and allowed to incubate for 24 h. Afterwards, cells were incubated in the presence or absence of doxycycline (1 μg/mL) for another 24 h (to induce Bcl-B expression). Compounds were then added, as indicated, in a volume of 5 μL. The next day, cell viability was measured using the ATPlite Luminescence ATP Detection System (PerkinElmer, Waltham, Mass.) according to the manufacturer's specifications.
(In general: Cellular ATP, detected with luciferase, serves as a proxy for viable cell number.)

The target in experiment [7] is T1, GST-Bcl-B. Put plainly: FITC-Puma-BH3/GST-Bcl-B fluorescence polarization displacement assay. Format: binding. Details: their C-terminal transmembrane domains (˜20 amino acids) were deleted to enhance protein solubility; made in house; host or cells: E. coli (BL21 Star (DE3); XL-1 Blue), pGEX-4T-1. The conditions noted are these: FIG. 23C; result in words.
Experiment [8] addresses T2, GST (Schistosoma japonicum, UniProt P08515).
T2 construct: made in house; host or cells: Escherichia coli BL21 Star (DE3), pGEX-4T-1
Put plainly: 1D 1H-NMR compound binding, GST negative control. The conditions noted are these: negative control protein; result in words. As for the experimental part:
as §1, §2

Experiment [9] concerns HeLa Tet-On (HTO1) cells. Nature of the experiment: Cell viability (ATPlite) in control HeLa Tet-On cells. The format is cell-based. The conditions noted are these: cells do not express Bcl-B; result in words. As for the experimental part:
as §3, §4

For experiment [10], the target named is GST-Bcl-B ΔTM [GST: P08515]. Nature of the experiment: fluorescence polarization, 20 nM FITC-TR3-r8 with increasing GST-Bcl-B.
The target of experiment [11] is GST-Bcl-B ΔTM [GST: P08515]. Put plainly: fluorescence polarization, 20 nM FITC-TR3-r8 with increasing GST-Bcl-B, HEPES/β-glycerophosphate buffer.
Experiment [12] deals with GST-Bcl-B ΔTM [GST: P08515]. Nature of the experiment: fluorescence polarization binding curves.
Experiment [13] has as its target GST-Bcl-2 ΔTM [GST: P08515]. Nature of the experiment: fluorescence polarization, direct binding to GST-Bcl-2.
Experiment [14] deals with T3, GST (glutathione S-transferase control protein) (UniProt P08515 1-218 = GST).
T3 construct: Negative control protein; also called control GST protein
Nature of the experiment: fluorescence polarization, 5 nM FITC-Bid BH3 with various concentrations of GST.

Experiment [15] addresses GST-Bfl-1 ΔTM [GST: P08515]. Nature of the experiment: Bfl-1 FPA plate, well C12: FITC-BH3 and GST-Bfl-1 without compound.
In experiment [16] the target is GST-Bfl-1 ΔTM [GST: P08515]. Put plainly: Bfl-1 FPA plate, well H12: FITC-BH3 and GST-Bfl-1 without compound.
Experiment [17] addresses GST-Bfl-1 ΔTM [GST: P08515]. Nature of the experiment: Bfl-1 FPA plate, well G12: FITC-BH3 and GST-Bfl-1 without compound.
In experiment [18] the target is GST-Bfl-1 ΔTM [GST: P08515]. Put plainly: Bfl-1 FPA plate, well D12: FITC-BH3 and GST-Bfl-1 without compound.
For experiment [19], the target named is GST-Bfl-1 ΔTM [GST: P08515]. Nature of the experiment: Bfl-1 FPA plate, well E12: FITC-BH3 and GST-Bfl-1 without compound.
Experiment [20] deals with GST-Bfl-1 ΔTM [GST: P08515]. Put plainly: Bfl-1 FPA plate, well B12: FITC-BH3 and GST-Bfl-1 without compound.
For experiment [21], the target named is GST-Bfl-1 ΔTM [GST: P08515]. Put plainly: Bfl-1 FPA plate, well A12: FITC-BH3 and GST-Bfl-1 without compound (peptide-alone wells 43-52 mP).
In experiment [22] the target is GST-Bfl-1 ΔTM [GST: P08515]. Nature of the experiment: Bfl-1 FPA plate, well F12: FITC-BH3 and GST-Bfl-1 without compound.

Values joined by “and” are separate entries in the source; they are usually repeats but may differ in a detail not shown here. Identical values can stand only once. Like-named read-outs stand apart in the source and are kept apart here. Where no end group is shown, it is not given here. [ ]: non-standard residue; d: D form. The star is where a group is joined. FITC = O=C1OC2(c3ccc(O)cc3Oc3cc(O)ccc32)c2ccc(NC(=S)*)cc21; Ahx = NCCCCCC(=O)O Some results are limits rather than exact numbers.

GST-Bcl-2, sequence (P10415 1-218 limits assumed): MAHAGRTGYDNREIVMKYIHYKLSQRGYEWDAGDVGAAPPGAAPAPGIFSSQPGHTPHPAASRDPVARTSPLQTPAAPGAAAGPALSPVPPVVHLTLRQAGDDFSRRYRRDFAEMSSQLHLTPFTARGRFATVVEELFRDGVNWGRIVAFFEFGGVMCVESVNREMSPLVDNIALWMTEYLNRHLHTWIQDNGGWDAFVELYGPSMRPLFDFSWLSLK
T2 sequence (P08515 whole entry): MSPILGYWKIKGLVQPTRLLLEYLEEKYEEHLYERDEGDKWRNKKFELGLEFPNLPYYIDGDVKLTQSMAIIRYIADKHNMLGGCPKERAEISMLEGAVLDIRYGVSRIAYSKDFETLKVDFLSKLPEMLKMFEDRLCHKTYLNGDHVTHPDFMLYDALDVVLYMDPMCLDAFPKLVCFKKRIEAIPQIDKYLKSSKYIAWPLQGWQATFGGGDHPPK
T3 sequence (P08515 whole entry): as above

For `O=C(O)Cc1c[nH]c2ccc(O)cc12` [Compound 5106705], the “Bcl-B H Coefficient” value in experiment [1] worked out at 3.385. The IC50 in [2] was 7.88 µM and 7.84 µM; in [3], 9.83 µM and 9.78 µM.

With `O=S(=O)(O)c1cccc2cccc(Nc3ccccc3)c12` [Compound 5255876], the IC50 in experiment [1] (Bcl-B IC50 (g/L)) is 2.94 µM; in [1] (Bcl-B IC50 (uM)), 2.95 µM; in [3], 12.6 µM. In addition, the “Bcl-B H Coefficient” value in [1] was 2.628.

What is called EC50 is the concentration giving half of the maximal effect. A high value points to a less potent agent. Consider `Cc1cc(C)nc(NC(=N)Nc2cccc(N)c2)n1` [Compound 5804000], for which the “displacement of FITC-Bim-BH3 from GST-Bcl-B” value in experiment [4] is recorded as “did not”. In addition, it took 5.6 µM to reach a half-maximal effect in [1] (EC50). For the same molecule, in [1], the “Bcl-B H Coefficient” value was 1.599. In addition, the “binding to GST-Bcl-B by 1D-NMR” value in [5] is “bound to GST-Bcl-B in a concentration dependent manner”. Moreover, the IC50 was 11.3 µM in [2], about 148 µM in [6] (in the absence of Bcl-B (without doxycycline)) and about 226 µM in [6] (in the presence of Bcl-B (with doxycycline)). Moreover, the “displacement of FITC-Puma-BH3 from GST-Bcl-B” value in experiment [7] was “did not”. Moreover, the “binding to GST by 1D-NMR” value in [8] is “did not bind to GST”.

In the case of `CN[C@@H]1C[C@H]2O[C@@](C)([C@@H]1OC)n1c3ccccc3c3c4c(c5c6ccccc6n2c5c31)C(=O)NC4` [staurosporine], in experiment [6] (result in words), the “effect of doxycycline-induced Bcl-B expression on compound-induced cell death” value is given as “more resistant to staurosporine-induced cell death”. In addition, the “effect of doxycycline on compound-induced cell death in control cells” value in [9] is listed as “the same level of staurosporine-induced cell death whether or not doxycycline was added”.

What is called Kd is the concentration at which binding is half-saturated. Low readings indicate tighter binding, high ones weaker binding. With {FITC-Ahx}-FSRSLHSLLG[Ahx][dR][dR][dR][dR][dR][dR][dR][dR] [FITC-TR3-9-r8], the Kd in experiment [10] is 0.02 µM; in [11], 0.02 µM; in [13] it was under 0.1 µM. Also, the fold increase of affinity in HβG buffer against PBS buffer in [12] lay in the range of 5 to 10 fold.

Turning to {FITC-Ahx}-EDIIRNIARHLAQVGDSMDR-NH2 (also called FITC-BH3 peptide; FITC-BH3) [FITC-Bid BH3 peptide], the binding result in experiment [14] is given as “no binding”. The fluorescence polarization (mP) in experiment [15] worked out at 166 mP; in experiment [16], 163 mP; in [17], 155 mP; in [18], 158 mP; in [19], 157 mP; in experiment [20] it was 160 mP. The fluorescence polarization (mP) in experiment [21] stood at 148 mP; in experiment [22], 163 mP.
